The target in one assay is T1, hGLP1R (Homo sapiens, UniProt P43220).
T1 construct: expressed in transfected cells; host or cells: HEK-293 cells carrying a CRE-luciferase reporter gene
Nature of the assay: hGLP1R CreLuc reporter gene assay in 0.5% and 100% plasma. To be noted: CreLuc reporter gene assay. The format is cell-based. The source says:
(§1) Example 1: hGLPR/hGIPR/hNPY2R CreLuc Assay in 0.5% and 100% Plasma
(§2) CHO and HEK-293 recombinant cell lines express a luciferase reporter gene under control of the cAMP responsive element (CRE). As a second recombinant protein the GLP-1 and NPY2 receptors were expressed in the reporter gene HEK cells, and the GIP receptor was expressed in the reporter gene CHO cells, respectively. Stimulation of these recombinant cells with an agonist leads to an increase of intracellular cAMP levels. In the presence of cAMP, the transcription factor CRE binding protein (CREB) binds to the CRE and to the CREB binding protein (CBP), which leads to transcription of the luciferase reporter gene. Peptides upon serial-dilution in 100% DMSO were transferred into 384-well assay plates with 5 μl pre-dispensed assay buffer (1×HBSS, 20 mM HEPES, pH7.4 supplemented with 0.5% human plasma) using acoustic dispensing on a Labcyte ECHO. Cryo-preserved transgenic reporter gene cells were thawed in assay buffer. 20 μl (10.000 cells/well) were added to the plate with the peptides and incubated for 4 hours at 37° C. in a humidified incubator. Following incubation, assay plates are equilibrated to room temperature, followed by addition of 25 μl of Bright-GIo™ Luciferase reagent, incubation at room temperature for 10 minutes and analysis of luminescence (Envision Reader). Concentration response evaluation of compounds was performed with 8 concentrations of peptides (covering four decades). EC50 values were calculated by non-linear regression using sigmoid concentration-response with variable slope. The same assays were run in the presence of 100% plasma with no additional buffer constituents.

For a further assay, the target named is T2, hGIPR (Homo sapiens, UniProt P48546).
T2 construct: expressed in transfected cells; host or cells: CHO cells carrying a CRE-luciferase reporter gene
T2 sequence (P48546 22-466): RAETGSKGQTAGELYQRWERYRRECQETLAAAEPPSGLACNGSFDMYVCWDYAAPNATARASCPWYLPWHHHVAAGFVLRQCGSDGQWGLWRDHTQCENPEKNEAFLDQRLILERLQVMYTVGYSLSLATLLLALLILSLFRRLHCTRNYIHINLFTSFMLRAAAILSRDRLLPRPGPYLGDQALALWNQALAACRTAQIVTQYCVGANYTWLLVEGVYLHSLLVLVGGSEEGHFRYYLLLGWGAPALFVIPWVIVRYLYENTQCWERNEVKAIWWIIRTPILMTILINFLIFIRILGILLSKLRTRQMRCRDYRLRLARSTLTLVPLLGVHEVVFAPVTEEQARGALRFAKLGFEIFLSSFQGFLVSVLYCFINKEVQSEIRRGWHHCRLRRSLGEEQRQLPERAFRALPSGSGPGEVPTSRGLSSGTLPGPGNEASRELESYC
The assay can be described thus: hGIPR CreLuc reporter gene assay in 0.5% and 100% plasma. It is filed as cell-based. To be noted: CreLuc reporter gene assay.
Excerpt: as §1, §2
A general note: Reporter assays use an easily measured gene product as a stand-in for the process of interest.

Setting [1] is: 0.5% human plasma, read-out: hGLP1R 0.5% hP.
[2] abbreviates: 0.5% human plasma, read-out: hGIPR 0.5% hP.
[3] abbreviates: 100% human plasma, read-out: hGIPR 100% hP.
The mark [4] stands for this setting: 100% human plasma, read-out: hGLP1R 100% hP.

Read-outs that look alike come from different tables or passages of the source. Starred links: 1 amine or outer side, 2 acyl side, 3 side chain; linkers in the order of their positions; H or OH if unused. Positions of bridges follow the written chain, without caps; N, C: chain ends. Non-standard residues stand in square brackets, D forms with d. Groups on a side chain read outwards from the residue. Chains are numbered I, II in the order given. No end group written: not given here. *: point of attachment. C20 diacid = O=C(O)CCCCCCCCCCCCCCCCCCC(=O)*; C18 diacid = O=C(O)CCCCCCCCCCCCCCCCC(=O)*; γGlu = O=C(O)[C@H](CCC(=O)[*:2])N[*:1]; εLys = N[C@@H](CCCCN[*:1])C(=O)[*:2]; NMeQ = CN[C@@H](CCC(N)=O)C(=O)O; AEEA = NCCOCCOCC(=O)O; Aib = CC(C)(N)C(=O)O; Ahx = NCCCCCC(=O)O

T1 sequence (P43220 24-463): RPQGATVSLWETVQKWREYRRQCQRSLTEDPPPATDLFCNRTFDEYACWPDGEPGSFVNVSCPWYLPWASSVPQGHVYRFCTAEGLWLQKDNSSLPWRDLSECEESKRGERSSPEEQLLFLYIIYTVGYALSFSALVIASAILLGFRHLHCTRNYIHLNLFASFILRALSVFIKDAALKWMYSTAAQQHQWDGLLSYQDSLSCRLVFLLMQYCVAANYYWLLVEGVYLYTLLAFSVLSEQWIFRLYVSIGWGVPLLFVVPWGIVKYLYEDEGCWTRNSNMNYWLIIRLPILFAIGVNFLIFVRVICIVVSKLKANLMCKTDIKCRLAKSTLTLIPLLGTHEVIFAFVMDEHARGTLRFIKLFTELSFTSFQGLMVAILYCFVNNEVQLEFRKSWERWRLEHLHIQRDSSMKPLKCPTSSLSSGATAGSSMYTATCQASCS

Consider “H-Y[Aib]EGTFTSDYSI[Aib]LEKQAQ[Aib]AFVQWLIK([AEEA-AEEA-γGlu-γGlu-γGlu-γGlu-γGlu-C20 diacid])GGPSEGASLRHYYNWLTRQRY-NH2 [Compound 228, Y-Aib-E-G-T-F-T-S-D-Y-S-I-Aib-L-E-K-Q-A-Q-Aib-A-F-V-Q-W-L-I-K(1,3)-GGPSEGASLRHYYNWLTRQRY-NH2.C20DA-gGlu-gGlu-gGlu-gGlu-gGlu-OEG-OEG(1,2)]”, for which the EC50 on hGLP1R (setting [1]) was found to be 0.12 nM; on hGIPR (setting [2]), 0.23 nM; at hGIPR (setting [3]), 1.52 nM.

Consider “H-Y[Aib]EGTFTSDYSI[Aib]LEKQAQ[Aib]AFVQWLIK([Ahx-γGlu-γGlu-γGlu-γGlu-γGlu-C18 diacid])GGPEEGASLRHYYNWLTRQRY-NH2 [Compound 162, Y-Aib-E-G-T-F-T-S-D-Y-S-I-Aib-L-E-K-Q-A-Q-Aib-A-F-V-Q-W-L-I-K(1,3)-GGPEEGASLRHYYNWLTRQRY-NH2.C18DA-gGlu-gGlu-gGlu-gGlu-gGlu-AHX(1,2)]”, for which the EC50 on hGLP1R (setting [1]) was 0.2 nM; at hGIPR (setting [2]) it was 0.25 nM; at hGIPR (setting [3]), 1.61 nM.

Turning to “H-Y[Aib]EGTFTSDYSI[Aib]LEKQAQ[Aib]AFVQWLIK([γGlu-γGlu-γGlu-γGlu-C18 diacid])GGPSEGASLRHYYNWLTRQRY-NH2 [Compound 268, Y-Aib-E-G-T-F-T-S-D-Y-S-I-Aib-L-E-K-Q-A-Q-Aib-A-F-V-Q-W-L-I-K(1,3)-GGPSEGASLRHYYNWLTRQRY-NH2.C18DA-gGlu-gGlu-gGlu-gGlu(1,2)]”, the EC50 on hGLP1R (setting [1]) is 0.08 nM; on hGIPR (setting [2]), 0.17 nM; at hGIPR (setting [3]), 1.01 nM.

“H-Y[Aib]EGTFTSDYSI[Aib]LEKQAQ[Aib]AFVQWLIK([γGlu-γGlu-γGlu-γGlu-γGlu-C20 diacid])GGPESGASLRHYYNWLTRQRY-NH2 [Compound 29, Y-Aib-E-G-T-F-T-S-D-Y-S-I-Aib-L-E-K-Q-A-Q-Aib-A-F-V-Q-W-L-I-K(1,3)-GGPESGASLRHYYNWLTRQRY-NH2.C20DA-gGlu-gGlu-gGlu-gGlu-gGlu(1,2)]”: the EC50 at hGLP1R (setting [1]) came to 0.13 nM; on hGLP1R (setting [4]), 6.74 nM; at hGIPR (setting [2]), 0.23 nM.

For the substance “H-Y[Aib]EGTFTSDYSI[Aib]LEKQAQ[Aib]AFVQWLIK([εLys-γGlu-γGlu-γGlu-γGlu-γGlu-C20 diacid])GGPESGASLRHYYNWLTRQRY-NH2 [Compound 61, Y-Aib-E-G-T-F-T-S-D-Y-S-I-Aib-L-E-K-Q-A-Q-Aib-A-F-V-Q-W-L-I-K(1,3)-GGPESGASLRHYYNWLTRQRY-NH2.C20DA-gGlu-gGlu-gGlu-gGlu-gGlu-eLys(1,2)]”, the EC50 on hGLP1R (setting [1]) worked out at 0.11 nM; at hGLP1R (setting [4]), 3.95 nM; at hGIPR (setting [2]) it was 0.36 nM; on hGIPR (setting [3]), 0.56 nM.

For “H-Y[Aib]EGTFTSDYSI[Aib]LEKQAQ[Aib]AFVQWLIK([εLys-γGlu-γGlu-γGlu-γGlu-γGlu-γGlu-C20 diacid])GGPESGASLRHYYNWLTRQRY-NH2 [Compound 37, Y-Aib-E-G-T-F-T-S-D-Y-S-I-Aib-L-E-K-Q-A-Q-Aib-A-F-V-Q-W-L-I-K(1,3)-GGPESGASLRHYYNWLTRQRY-NH2.C20DA-gGlu-gGlu-gGlu-gGlu-gGlu-gGlu-eLys(1,2)]”, the figures for the EC50 at hGLP1R (setting [1]), on hGIPR (setting [2]) and on hGIPR (setting [3]) were 0.11 nM, 0.24 nM and 1.44 nM, respectively.

In the case of “H-Y[Aib]EGTFTSDYSI[Aib]LEKQAQ[Aib]AFVQWLIK([εLys-γGlu-γGlu-γGlu-γGlu-γGlu-γGlu-C20 diacid])GGPRYYASLRHYYNWLTRQRY-NH2 [Compound 14, Y-Aib-E-G-T-F-T-S-D-Y-S-I-Aib-L-E-K-Q-A-Q-Aib-A-F-V-Q-W-L-I-K(1,3)-GGPRYYASLRHYYNWLTRQRY-NH2.C20DA-gGlu-gGlu-gGlu-gGlu-gGlu-gGlu-eLys(1,2)]”, the EC50 at hGLP1R (setting [1]) was determined as 0.4 nM; at hGIPR (setting [2]), 0.71 nM.

For “H-Y[Aib]EGTFTSDYSI[Aib]LEKQAQ[Aib]AFVQWLIK([εLys-γGlu-γGlu-γGlu-γGlu-γGlu-γGlu-C20 diacid])GGPSEGASLRHYYNWLTR[NMeQ]RY-NH2 [Compound 115, Y-Aib-E-G-T-F-T-S-D-Y-S-I-Aib-L-E-K-Q-A-Q-Aib-A-F-V-Q-W-L-I-K(1,3)-G-G-P-S-E-G-A-S-L-R-H-Y-Y-N-W-L-T-R-NMeQ-R-Y-NH2.C20DA-gGlu-gGlu-gGlu-gGlu-gGlu-gGlu-eLys(1,2)]”, the EC50 worked out at 0.12 nM at hGLP1R (setting [1]) and 0.51 nM at hGIPR (setting [2]).

Regarding “H-Y[Aib]EGTFTSDYSI[Aib]LEKQAQ[Aib]AFVQWLIK([εLys-γGlu-γGlu-γGlu-γGlu-γGlu-γGlu-C20 diacid])GGPSSGVSLRHYYNWLTRQRY-NH2 [Compound 47, Y-Aib-E-G-T-F-T-S-D-Y-S-I-Aib-L-E-K-Q-A-Q-Aib-A-F-V-Q-W-L-I-K(1,3)-GGPSSGVSLRHYYNWLTRQRY-NH2.C20DA-gGlu-gGlu-gGlu-gGlu-gGlu-gGlu-eLys(1,2)]”, the EC50 at hGLP1R (setting [1]) stood at 0.07 nM; at hGIPR (setting [2]), 0.25 nM; on hGIPR (setting [3]), 0.73 nM.

As for “H-Y[Aib]EGTFTSDYSI[Aib]LEKQAQ[Aib]EFVEWLIK([AEEA-γGlu-γGlu-γGlu-C18 diacid])GGPSEGASLRHYYNWLTRQRY-NH2 [Compound 274, Y-Aib-E-G-T-F-T-S-D-Y-S-I-Aib-L-E-K-Q-A-Q-Aib-E-F-V-E-W-L-I-K(1,3)-GGPSEGASLRHYYNWLTRQRY-NH2.C18DA-gGlu-gGlu-gGlu-OEG(1,2)]”, the EC50 at hGLP1R (setting [1]) stood at 0.41 nM; at hGIPR (setting [2]), 0.23 nM.

Take “H-Y[Aib]EGTFTSDYSI[Aib]LEKQAQ[Aib]EFVQWLIK([AEEA-AEEA-Glu-Glu-Glu-C18 diacid])GGPSEGASLRHYYNWLTRQRY-NH2 [Compound 157, Y-Aib-E-G-T-F-T-S-D-Y-S-I-Aib-L-E-K-Q-A-Q-Aib-E-F-V-Q-W-L-I-K(1,3)-GGPSEGASLRHYYNWLTRQRY-NH2.C18DA-E-E-E-OEG-OEG(1,2)]”: the figures for the EC50 at hGLP1R (setting [1]), at hGIPR (setting [2]) and on hGIPR (setting [3]) were 0.35 nM, 0.38 nM and 1.58 nM, respectively.

Regarding “I: H-Y[Aib]EGTFTSDYSI[Aib]LEKQAQ[Aib]AFVEWLIKGGPSEGASLRHYYNWLTRQRY-NH2 / II: {C18 diacid}-EEEEEE (amide I:28-II:C) [Compound 302, Y-Aib-E-G-T-F-T-S-D-Y-S-I-Aib-L-E-K-Q-A-Q-Aib-A-F-V-E-W-L-I-K(1,3)-GGPSEGASLRHYYNWLTRQRY-NH2.C18DA-E-E-E-E-E-E(1,2)]”, the EC50 came out at 0.15 nM on hGLP1R (setting [1]) and 0.33 nM at hGIPR (setting [2]).

As to “I: H-Y[Aib]EGTFTSDYSI[Aib]LEKQAQ[Aib]AFVQWLIKGGPEEGASLRHYYNWLTRQRY-NH2 / II: {C18 diacid}-EEEEEE[εLys] (amide I:28-II:C) [Compound 196, Y-Aib-E-G-T-F-T-S-D-Y-S-I-Aib-L-E-K-Q-A-Q-Aib-A-F-V-Q-W-L-I-K(1,3)-GGPEEGASLRHYYNWLTRQRY-NH2.C18DA-E-E-E-E-E-E-eLys(1,2)]”, the figures for the EC50 at hGLP1R (setting [1]) and on hGIPR (setting [2]) were 0.2 nM and 0.25 nM, respectively.

“I: H-Y[Aib]EGTFTSDYSI[Aib]LEKQAQ[Aib]EFVQWLIKGGPSEGASLRHYYNWLTRQRY-NH2 / II: {C18 diacid}-EEEEEE (amide I:28-II:C) [Compound 179, Y-Aib-E-G-T-F-T-S-D-Y-S-I-Aib-L-E-K-Q-A-Q-Aib-E-F-V-Q-W-L-I-K(1,3)-GGPSEGASLRHYYNWLTRQRY-NH2.C18DA-E-E-E-E-E-E(1,2)]”: the EC50 at hGLP1R (setting [1]) came to 0.22 nM; at hGIPR (setting [2]), 0.38 nM.

Regarding “Y[Aib]EGTFTSDYSI[Aib]LEKQAQ[Aib]AFIEWLIK([AEEA-AEEA-γGlu-γGlu-γGlu-γGlu-C18 diacid])GGPSEGASLRHYYNWLTRQRY-NH2 [Compound 258, Y-Aib-E-G-T-F-T-S-D-Y-S-I-Aib-L-E-K-Q-A-Q-Aib-A-F-I-E-W-L-I-K(1,3)-GGPSEGASLRHYYNWLTRQRY-NH2.C18DA-gGlu-gGlu-gGlu-glu-OEG-OEG(1,2)]”, the EC50 on hGLP1R (setting [1]) amounted to 0.17 nM; on hGIPR (setting [2]) it was 0.16 nM; at hGIPR (setting [3]) it was 1.23 nM.

The values above are taken from US20240247080A1, “GLP1/GIP/NPY2 RECEPTOR TRIPLE AGONISTS” (Boehringer Ingelheim International GmbH, priority 2022, published 2024).
